Measurements published in the supplement of paper PMC4858399.
Where a name gives a salt, the structure may show the parent alone.

Columns and labels:
[1] = test system: Caenorhabditis elegans N2; assay: mean nematode size ln(EXT) after 48 h, plate-adjusted (DMSO control set to 6) (ln(EXT), control-adjusted); higher = larger nematodes / less growth inhibition; settings: exposure time 48 h
How it was run: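 Worms were measured individually for extinction on the Biosort after 48 h at 20°C. They began as synchronised C. elegans N2 L1 larvae in K-medium with killed OP50, 1% DMSO and 0.5–200 µM chemical. Once debris had been removed by a growth model, values were natural-logged and averaged per well to give mean size. The plate adjustment subtracted the vehicle control mean and added 6.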

[2] = test system: Caenorhabditis elegans N2; assay: lowest effective concentration for larval growth inhibition (size below effect threshold); higher = less potent; settings: exposure time 48 h
How it was run: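 Each well of a 96-well plate received 50 C. elegans N2 L1 larvae, which grew for 48 h at 20°C in K-medium containing killed bacteria, 1% DMSO and the chemical at 0.5, 1, 5, 10, 50, 100 or 200 µM. A Biosort recorded the extinction of every worm as its size, and these readings were log-transformed and averaged per well. The lowest effective concentration is defined as the first dose at which the plate-adjusted mean size falls below the threshold and stays below it at all higher doses; that threshold is 5.665.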

| SMILES | mean nematode size ln(EXT) (ln) ([1]; 0.5 µM) | mean nematode size ln(EXT) (ln) ([1]; 1 µM) | mean nematode size ln(EXT) (ln) ([1]; 5 µM) | mean nematode size ln(EXT) (ln) ([1]; 10 µM) | mean nematode size ln(EXT) (ln) ([1]; 50 µM) | mean nematode size ln(EXT) (ln) ([1]; 100 µM) | mean nematode size ln(EXT) (ln) ([1]; 200 µM) | lowest effective concentration [2] [µM] |
| --- | --- | --- | --- | --- | --- | --- | --- | --- |
| O=[N+]([O-])c1ccc(O)cc1 [4-Nitrophenol] | 5.92 | 5.82 | 5.87 | 5.69 | 5.89 | 5.8 | 5.8 | > 200 |
| Nc1nc(=O)c2nc(CNc3ccc(C(=O)N[C@@H](CCC(=O)O)C(=O)O)cc3)cnc2[nH]1 [Folic acid] | 6.04 | 5.96 | 5.91 | 6.04 | 6.02 | 6 | 5.82 | > 200 |
| O=[N+]([O-])c1ccc(Cl)cc1 [1-Chloro-4-nitrobenzene] | 5.94 | 5.94 | 5.97 | 5.87 | 6.01 | 6 | 5.75 | > 200 |
| CCOCN(C(=O)CCl)c1c(C)cccc1CC [Acetochlor] | 6.04 | 6 | 6.11 | 6.25 | 6.04 | 6.05 | 6.15 | > 200 |
| CCOc1nc(F)cc2nc(S(=O)(=O)Nc3c(Cl)cccc3Cl)nn12 [Diclosulam] | 6.11 | 6.13 | 6.09 | 6.14 | 6.15 | 6.17 | 5.79 | > 200 |
| COS(C)(=O)=O [Methyl methanesulfonate] | 5.92 | 5.9 | 5.9 | 5.87 | 5.81 | 5.52 | 5.89 | > 200 |
| CCNc1nc(Cl)nc(NC(C)C)n1 [Atrazine] | 5.54 | 5.72 | 5.73 | 5.07 | 6.06 | 6.06 | 5.94 | > 200 |
| CCCOC(=O)c1ccc(O)cc1 [Propylparaben] | 5.95 | 5.95 | 5.9 | 5.92 | 5.84 | 5.87 | 5.79 | > 200 |
| Cc1ccc(C(C)C)c(O)c1 [Thymol] | 5.92 | 5.82 | 5.66 | 5.65 | 5.67 | 5.51 | 5.72 | > 200 |
| CCOCCOC(C)=O [2-Ethoxyethyl acetate] | 6.11 | 6.11 | 6.07 | 6.08 | 6.07 | 6.04 | 6.57 | > 200 |
| CS(=O)(=O)OCCCCOS(C)(=O)=O [Busulfan] | 5.98 | 5.93 | 5.94 | 5.95 | 5.98 | 5.94 | 5.8 | > 200 |
| Cc1ccn2nc(S(=O)(=O)Nc3c(F)cccc3F)nc2n1 [Flumetsulam] | 5.91 | 5.95 | 6.03 | 6.05 | 5.93 | 6.02 | 5.88 | > 200 |
| O=C(O)C(F)(F)C(F)(F)C(F)(F)C(F)(F)C(F)(F)F [Perfluorohexanoic acid] | 5.47 | 5.55 | 5.6 | 5.67 | 5.69 | 5.73 | 5.86 | > 200 |
| COc1ccc([N+](=O)[O-])cc1N [2-methoxy-5-nitroaniline] | 5.71 | 5.76 | 5.68 | 5.77 | 5.83 | 5.75 | 5.82 | > 200 |
| OC(CCl)CCl [1,3-Dichloro-2-propanol] | 5.88 | 5.83 | 5.8 | 5.82 | 5.8 | 5.48 | 5.88 | > 200 |
| CC[C@H]1OC(=O)[C@H](C)[C@@H](O[C@H]2C[C@@](C)(OC)[C@@H](O)[C@H](C)O2)[C@H](C)[C@@H](O[C@@H]2O[C@H](C)C[C@H](N(C)C)[C@H]2O)[C@](C)(O)C[C@@H](C)C(=O)[C@H](C)[C@@H](O)[C@]1(C)O [Erythromycin] | 5.95 | 5.89 | 5.94 | 5.9 | 5.86 | 5.92 | 5.84 | > 200 |
| COCC(C)N(C(=O)CCl)c1c(C)csc1C (stereo unspecified) [Dimethenamid] | 6.08 | 5.91 | 6.17 | 6.03 | 5.87 | 6.56 | 5.99 | > 200 |
| COc1c(Cl)ccc(Cl)c1C(=O)O [Dicamba] | 5.78 | 5.92 | 5.72 | 5.98 | 6.18 | 6.37 | 6.03 | > 200 |
| CCN(Cc1cccc(S(=O)(=O)O)c1)c1ccc(C(=C2C=CC(=[N+](CC)Cc3cccc(S(=O)(=O)O)c3)C=C2)c2ccccc2S(=O)(=O)[O-])cc1 [FD & C Blue no. 1] | 5.85 | 5.87 | 5.91 | 5.88 | 5.89 | 5.92 | 5.89 | > 200 |
| C/C(=N\C#N)N(C)Cc1ccc(Cl)nc1 [Acetamiprid] | 5.78 | 5.98 | 6.03 | 6.03 | 6.16 | 6.02 | 5.96 | > 200 |
| c1nc[nH]n1 [1H-1,2,4-Triazole] | 6.09 | 6.11 | 6 | 6.04 | 6.04 | 6.02 | 5.74 | > 200 |
| Oc1cc(Cl)c(Cl)cc1Cl [2,4,5-Trichlorophenol] | 5.83 | 5.83 | 5.83 | 5.78 | 5.77 | 3.41 | 5.81 | > 200 |
| CCOCCO [2-Ethoxyethanol] | 5.85 | 5.79 | 5.75 | 5.64 | 5.72 | 5.89 | 5.79 | > 200 |
| Cc1ccc([N+](=O)[O-])cc1C [1,2-Dimethyl-4-nitrobenzene] | 5.84 | 5.96 | 5.89 | 5.8 | 5.86 | 5.8 | 5.81 | > 200 |
| Cc1nc(-c2ccccn2)ncc1C(=O)Nn1cc(C)c2cc(F)ccc21 | 5.82 | 5.84 | 5.9 | 5.83 | 5.73 | 5.77 | 5.86 | > 200 |
| CC1=CC(=O)CC(C)(C)C1 [Isophorone] | 5.84 | 5.72 | 5.76 | 5.71 | 5.75 | 5.94 | 5.79 | > 200 |
| CC(C)NCC(O)c1ccc(O)c(O)c1 (stereo unspecified) [Isoprenaline hydrochloride] | 5.94 | 5.97 | 5.91 | 5.94 | 5.95 | 5.54 | 5.84 | > 200 |
